According to patent US20230129723A1, “EN[…] OF 3,4-METHYLENEDIOXYMETHAMPHETAMINE AND RELATED METABOLITES AND USES THEREOF” (ATAI Life Sciences AG, priority 2021, published 2023):

Assays:
[1] = tested on: rat embryonic cortical neuron cultures; experiment: Neurite outgrowth in primary rat embryonic cortical neuron cultures, single test articles (Example 1); format: cell-based; conditions: 3 days treatment, compared to 0.1% sterile water vehicle control
From the text: Primary rat cortical neuron experimental methods: Female Wistar rats of 17 days gestation were killed by cervical dislocation and the fetuses (typically 6 to 8 in number) were removed from the uterus. Fetal brains were placed in ice-cold medium of Leibovitz (L15, Gibco, France). Cortex was dissected and meninges were carefully removed. The cortical neurons were dissociated by trypsinization (trypsin-EDTA, Gibco) in the presence of DNAse I (Roche, France). The reaction was stopped by addition of Dulbecco's Modified Eagle Medium (DMEM; Gibco) with 10% of fetal bovine serum (FBS; Gibco). The suspension was triturated with a 10-ml pipette and a 21-gauge needle syringe and centrifuged. The pellet of dissociated cells was resuspended in a medium consisting of Neurobasal (Gibco) supplemented with 2% B27 supplement (Gibco), 0.5 mM L-Glutamine (Gibco), and an antibiotic-antimycotic mixture. Viable cells were counted in a Neubauer cytometer and cells were seeded in 96-well plates (Costar) precoated with poly-L-lysine at 10,000 cells/well.
Stock solutions were prepared in sterile water at 10 mM, and stored at −20° C. until use. Further dilution will be performed in culture in the medium on the day of the treatment. 0.1% Sterile water will be present in all tested conditions. The following conditions were tested: 1) Racemic MDMA (10000, 1000, 100, 10, 1, 0.1, 0.01, 0.001 nM), 2) S(+)-MDMA (10000, 1000, 100, 10, 1, 0.1, 0.01, 0.001 nM), 3) R(−)-MDMA (10000, 1000, 100, 10, 1, 0.1, 0.01, 0.001 nM), 4) Racemic MDA (10000, 1000, 100, 10, 1, 0.1, 0.01, 0.001 nM), 5) S(+)-MDA (10000, 1000, 100, 10, 1, 0.1, 0.01, 0.001 nM), and 6) R(−)-MDA (10000, 1000, 100, 10, 1, 0.1, 0.01, 0.001 nM).
The experimental protocol was performed in 2 independent cultures (i.e., from 2 different pregnant rats). For each culture, each condition was tested in sextuplet (6 wells per condition per culture for a total of 12 wells per condition). […] After three days of plating and compound treatment (Day3), cultures were fixed with paraformaldehyde in phosphate buffered saline at 4° C. (PBS, 4%, Sigma). Then, all subsequent steps were performed at room temperature.
Cells were successively permeabilized for 30 minutes using 0.1% triton, saturated with PBS containing 3% bovine serum albumin (BSA) and incubated for 1 hour with anti-beta III tubulin antibody (T5168, Sigma). Cells were first washed 3 times and then were incubated for 1 hour with goat anti-mouse secondary antibody coupled with Alexa Fluor 488 (AF488, Invitrogen A11001). Finally, nuclei were stained with 4′-6-diamidino-2-phenylindole (DAPI). After rinsing the cells with PBS, the plate was imaged and neurite networks were examined and analyzed using a High-Content Screening platform (CellInsight CX5, Thermo Scientific) with integrated Photometrics high-resolution fluorescent camera, Olympus objective (10×) and HCS Studio Cell Analysis Software.
Approximately 2,000 neurons per well were analyzed using a validated cortex neuron outgrowth algorithm that utilizes parameters optimized for analysis of embryonic rat cortical neuron cultures. The HCS Studio Cell Analysis Software output will include values for neurite number total count, neurite total length (μm) and total number of branch points for each of the 6 wells per culture. The evaluation of neurite outgrowth was performed using the average number of neurites per neuron, the average total neurite length per neuron (μm) and the average number of branch points per neuron across 12 wells. Data also were transformed to percent (%) of the average vehicle control value. Results were expressed as mean (±s.e.m.) of the transformed (% of vehicle control) data. Statistical analyses were performed on transformed percent of the average vehicle control data for each measure for each test article using one-way analysis of variance (Anova, StatView or GraphPad Prism). Where applicable, Dunnett's test was used for multiple pairwise comparisons to the negative control (vehicle) condition. […]

[2] = tested on: rat embryonic cortical neuron cultures; experiment: Neurite outgrowth in primary rat embryonic cortical neuron cultures, racemic and non-racemic R(−)/S(+)-MDMA mixtures (Example 2); format: cell-based; conditions: concentrations of R(−)- and S(+)-MDMA as in the label (alone: 10 uM), 3 days treatment, compared to vehicle control, Anova/Dunnett p<0.05
From the text: Primary rat cortical neuron experimental methods: Female Wistar rats of 17 days gestation are killed by cervical dislocation and the fetuses (typically 6 to 8 in number) are removed from the uterus. Their brains are placed in ice-cold medium of Leibovitz (L15, Gibco, France). Cortex is dissected and meninges are carefully removed. The cortical neurons are dissociated by trypsinization (trypsin-EDTA, Gibco) in presence of DNAse I (Roche, France). The reaction is stopped by addition of Dulbecco's Modified Eagle Medium (DMEM; Gibco) with 10% of fetal bovine serum (FBS; Gibco). The suspension is triturated with a 10-ml pipette and using a needle syringe 21G and centrifuged. The pellet of dissociated cells is resuspended in a medium consisting of Neurobasal (Gibco) supplemented with 2% B27 supplement (Gibco), 0.5 mM L-Glutamine (Gibco), an antibiotic-antimycotic mixture. Viable cells are counted in a Neubauer cytometer and cells are seeded in 96-well plate (Costar) precoated with poly-L-lysine at 10 000cells/well.
The protocol is performed in either 1 or 2 independent cultures (i.e., from 1 or 2 different pregnant rats). For each culture, each condition is performed in sextuplet (6 wells per condition per culture from 1 rat, or a total of 12 wells per condition when 2 rats/cultures are used).
Cells are treated with the test compounds R(−)-MDMA and S(+)-MDMA as described in the following Tables below.
After three days of plating and test compound treatment (Day3), cultures are fixed with paraformaldehyde in phosphate buffered saline at 4° C. (PBS, 4%, Sigma). Then all steps will be performed at room temperature. Cells are successively permeabilized 30 min using 0.1% triton, saturated with PBS containing 3% bovine serum albumin (BSA) and incubated 1 h with anti-beta III tubulin antibody (T5168, Sigma). Cells are first washed 3 times and are then incubated 1 h with goat anti-mouse secondary antibody coupled with Alexa Fluor 488 (AF488, Invitrogen A11001). Finally, nuclei are stained with 4′-6-diamidino-2-phenylindole (DAPI). After rinsing the cells with PBS, the plate is filmed and neurite networks are examined and analyzed using a High-Content Screening platform (CellInsight CX5, Thermo Scientific) with integrated Photometrics high-resolution fluorescent camera, Olympus objective (10×) and HCS Studio Cell Analysis Software.
Approximately 2000 neurons per well were analyzed using a validated Cortex Neuron Outgrowth algorithm established by Neurofit that utilizes parameters optimized for analysis of embryonic rat cortical neuron cultures. The HCS Studio Cell Analysis Software output will include values for neurite total count number, neurite total length (μm) and total number of branch points for each of the 6 wells per culture. The evaluation of neurite outgrowth was performed using the average number of neurites per neuron, the average of total neurite length per neuron (μm) and the average number of branchpoint per neuron across 6 wells of each culture (6 wells total (1 rat used) or 12 wells total (2 rats used). Data were transformed to % of the average vehicle control value.

[3] = at any tested concentration (0.001-10000 nM)

SMILES | neurite number ([1]; at 10 μM, Anova/Dunnett p<0.05) | neurite total length (μm) ([1]; at 10 μM, Anova/Dunnett p<0.05) | total number of branch points ([1]; at 10 μM, Anova/Dunnett p<0.05) | neurite number [1, 3] | neurite total length (μm) [1, 3] | total number of branch points [1, 3] | neurite number ([1]; at 0.0001 μM) | average number of branchpoints per neuron [2] | average number of neurites per neuron [2] | average total neurite length per neuron [2]
CNC(C)Cc1ccc2c(c1)OCO2 (racemic) [Racemic R,S(+/−)-MDMA, 3,4-Methylenedioxymethamphetamine] | significantly increased | significantly increased | significantly increased |  |  |  |  |  |  | 
CC(N)Cc1ccc2c(c1)OCO2 (racemic) [racemic R,S(+/−)-MDA, 3,4-methylenedioxyamphetamine, reference compound] |  |  |  | did not significantly alter | did not significantly alter | did not significantly alter |  |  |  | 
C[C@@H](N)Cc1ccc2c(c1)OCO2 [R(−)-MDA] |  |  |  | did not significantly alter | did not significantly alter | did not significantly alter |  |  |  | 
CN[C@H](C)Cc1ccc2c(c1)OCO2 [R(−)-MDMA, (R)-3,4-methylenedioxymethamphetamine] | significantly increased | significantly increased | significantly increased |  |  |  | significantly increased | did not have significant effects | did not have significant effects | significantly induced
C[C@H](N)Cc1ccc2c(c1)OCO2 [S(+)-MDA] |  |  |  | did not significantly alter | did not significantly alter | did not significantly alter |  |  |  | 
CN[C@@H](C)Cc1ccc2c(c1)OCO2 [S(+)-MDMA] |  |  |  | did not significantly alter | did not significantly alter | did not significantly alter |  | did not significantly induce | did not significantly induce | did not significantly induce
